Here are results for 41 molecules from ChEMBL document CHEMBL1142052, “Isosteric ramatroban analogs: selective and potent CRTH-2 antagonists” (Bioorg Med Chem Lett, 2005).

Bounds are passed on as bounds.

Assay [1] has as its target T1, Prostaglandin D2 receptor 2 (Homo sapiens, UniProt Q9Y5Y4).
T1 sequence (Q9Y5Y4 whole entry): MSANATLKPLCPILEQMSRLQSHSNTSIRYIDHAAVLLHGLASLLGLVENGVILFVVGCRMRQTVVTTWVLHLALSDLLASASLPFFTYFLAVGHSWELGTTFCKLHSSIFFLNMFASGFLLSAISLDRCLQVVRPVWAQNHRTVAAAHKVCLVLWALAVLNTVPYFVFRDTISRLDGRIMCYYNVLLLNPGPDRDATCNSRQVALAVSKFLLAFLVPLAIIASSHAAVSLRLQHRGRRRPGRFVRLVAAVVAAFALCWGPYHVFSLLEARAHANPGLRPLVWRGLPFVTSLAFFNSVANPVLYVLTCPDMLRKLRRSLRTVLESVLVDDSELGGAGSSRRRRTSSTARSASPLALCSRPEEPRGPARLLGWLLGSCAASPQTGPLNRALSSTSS
As to the kind of experiment: Inhibitory concentration for PGD2-mediated receptor activation in a fluorescence assay that measures changes in intracellular calcium. The assay is classed as functional, cell-based. (A change in cytosolic calcium serves as a functional read-out for many receptors and channels.)

The target in assay [2] is T1, Prostaglandin D2 receptor 2. The assay can be described thus: Inhibitory activity for binding of PGD-2 to CRTH-2 in hCRTH-2 binding assay using HEK293 cell membranes.
Assay [3] concerns the target T2, Thromboxane A2 receptor (Homo sapiens, UniProt P21731).
T2 sequence (P21731 whole entry): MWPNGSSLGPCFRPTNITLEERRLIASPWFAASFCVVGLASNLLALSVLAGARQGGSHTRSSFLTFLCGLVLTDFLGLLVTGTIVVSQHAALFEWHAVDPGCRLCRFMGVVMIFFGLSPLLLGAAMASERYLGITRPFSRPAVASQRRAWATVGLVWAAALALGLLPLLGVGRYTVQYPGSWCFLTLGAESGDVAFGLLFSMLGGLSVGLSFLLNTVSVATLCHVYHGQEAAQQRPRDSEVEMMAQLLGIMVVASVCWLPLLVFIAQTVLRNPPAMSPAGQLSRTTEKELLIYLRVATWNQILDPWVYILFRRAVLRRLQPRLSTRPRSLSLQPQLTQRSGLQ
The assay can be described thus: Inhibitory activity for binding of PGD-2 in hTP binding assay using HEK293 cell membranes.

Assay [4] concerns the target T1, Prostaglandin D2 receptor 2. The assay can be described thus: Inhibitory activity against CRTH-2 in hCRTH-2 binding assay using HEK293 cell membranes.
The target in assay [5] is T3, Thromboxane A2 receptor (Homo sapiens) (UniProt P21731).
T3 sequence (whole entry): T2 sequence (P21731 whole entry)
As to the kind of experiment: Percentage inhibition for binding of PGD-2 in hTP binding assay using HEK293 cell membranes. As to conditions: concentration not given here.

Assay [6] has as its target T1, Prostaglandin D2 receptor 2. As to the kind of experiment: = for PGD2-mediated receptor activation in a fluorescence assay that measures changes in intracellular calcium.
The target in assay [7] is T2, Thromboxane A2 receptor. As to the kind of experiment: Inhibitory activity for binding of PGD-2 to hTP in hTP binding assay using HEK293 cell membranes.

For orientation: IC50 means the concentration that inhibits the measured activity by half. What is called Ki is a dissociation constant, usually derived from enzyme kinetics or from competition with a known ligand. Usually inhibition stands for the change of the read-out against control, counted positive when it falls. Read a high inhibition as strong suppression.

`CC(C)(C)C1CCc2c(c3cc(NS(=O)(=O)c4ccc(F)cc4)ccc3n2CC(=O)O)C1` (configuration not stated): in assay [1], the IC50 worked out at 120 nM.

Take `CC(Cn1c2c(c3cc(NS(=O)(=O)c4ccc(F)cc4)ccc31)CCCC2)C(=O)O` (configuration not stated): the Ki in assay [2] is greater than 50 µM.

In turn, `Cc1cccc(S(=O)(=O)Nc2ccc3c(c2)c2c(n3CCC(=O)O)CCCC2)c1` had a Ki in assay [2] of 4.2 µM.

Regarding `O=C(O)CCn1c2c(c3cc(NC(=O)Nc4ccccc4)ccc31)CCCC2`, in assay [2], the Ki was greater than 50 µM.

`O=C(O)CCn1c2c(c3cc(NS(=O)(=O)c4cccc(F)c4)ccc31)CCCC2` registered a Ki in assay [2] of 1.3 µM.

Molecule `O=C(O)c1ccc(-n2c3c(c4cc(NS(=O)(=O)c5ccc(F)cc5)ccc42)CCCC3)cc1` gave a Ki in assay [2] of 6.4 µM.

In assay [2], `O=C(O)CCn1c2c(c3cc(NS(=O)(=O)c4ccc(Cl)cc4)ccc31)CCCC2` gave a Ki of 3 µM.

On to `O=C(O)Cn1c2c(c3cc(NS(=O)(=O)c4ccc(F)cc4)ccc31)CCC2`, for which the IC50 in assay [1] is 130 nM.

As to `O=C(O)c1cccc(-n2c3c(c4cc(NS(=O)(=O)c5ccc(F)cc5)ccc42)CCCC3)c1`, the Ki in assay [2] came out at 27 µM.

Turning to `O=C(O)CCn1c2c(c3cc(NS(=O)(=O)c4ccc(F)c(Cl)c4)ccc31)CCCC2`, in assay [2], the affinity, expressed as Ki, was 1.7 µM.

Turning to `O=C(O)CCn1c2c(c3cc(NS(=O)(=O)c4ccc(F)cc4)ccc31)CCCC2`, the Ki was determined as 1500 nM on Thromboxane A2 receptor [3], 250 nM in assay [4] and 0.25 µM in assay [2].

In assay [2], `O=C(O)CCn1c2c(c3cc(NS(=O)(=O)c4ccc(Oc5ccccc5)cc4)ccc31)CCCC2` returned an inhibition constant (Ki) of 7.5 µM.

In assay [2], `Cc1ccccc1S(=O)(=O)Nc1ccc2c(c1)c1c(n2CCC(=O)O)CCCC1` returned a Ki greater than 50 µM.

In assay [2], `O=C(O)c1ccccc1-n1c2c(c3cc(NS(=O)(=O)c4ccc(F)cc4)ccc31)CCCC2` registered a Ki of 33 µM.

Regarding `O=C(O)CCCn1c2c(c3cc(NS(=O)(=O)c4ccc(F)cc4)ccc31)CCCC2`, the Ki in assay [2] is 8.3 µM.

In assay [2], `O=C(O)CCn1c2c(c3cc(NS(=O)(=O)c4ccc(F)cc4F)ccc31)CCCC2` displayed a Ki of 3.6 µM.

As to `CC(C(=O)O)n1c2c(c3cc(NS(=O)(=O)c4ccc(F)cc4)ccc31)CCCC2` (configuration not stated), the Ki in assay [2] amounted to 4.4 µM.

In assay [2], `CCCS(=O)(=O)Nc1ccc2c(c1)c1c(n2CCC(=O)O)CCCC1` returned a Ki greater than 50 µM.

Regarding `O=P(O)(O)CCn1c2c(c3cc(NS(=O)(=O)c4ccc(F)cc4)ccc31)CCCC2`, the Ki in assay [2] is greater than 50 µM.

As to `O=C(O)/C=C\n1c2c(c3cc(NS(=O)(=O)c4ccc(F)cc4)ccc31)CCCC2`, the Ki in assay [2] amounted to 19 µM.

Consider `O=C(O)Cn1c2c(c3cc(NS(=O)(=O)c4ccc(F)cc4)ccc31)CC(c1ccccc1)CC2` (configuration not stated), for which the IC50 in assay [1] came to 22 nM. Further, the inhibition in assay [5] came to 66%. In addition, at Thromboxane A2 receptor [3], the Ki was greater than 20000 nM.

Regarding `O=C(O)CCn1c2c(c3ccccc31)C[C@H](NS(=O)(=O)c1ccc(F)cc1)CC2` [RAMATROBAN], in assay [5], the inhibition came out at 98%. In addition, in assay [6], the IC50 came to 340 nM. Further, the Ki on Thromboxane A2 receptor [3] was determined as 18 nM; in assay [2] it was 0.29 µM.

Regarding `O=C(O)CCn1c2c(c3cc(NS(=O)(=O)c4ccc(-c5ccccc5)cc4)ccc31)CCCC2`, the Ki in assay [2] is 3.3 µM.

As to `O=C(O)CCn1c2c(c3cc(NCc4ccccc4)ccc31)CCCC2`, the Ki in assay [2] worked out at 17 µM.

Molecule `COc1ccc(S(=O)(=O)Nc2ccc3c(c2)c2c(n3CCC(=O)O)CCCC2)cc1` showed a Ki in assay [2] of 2.1 µM.

Regarding `O=C(O)CCn1c2c(c3cc(NS(=O)(=O)c4ccc(O)cc4)ccc31)CCCC2`, the Ki in assay [2] was found to be 7.4 µM.

With `O=C(O)CCCCn1c2c(c3cc(NS(=O)(=O)c4ccc(F)cc4)ccc31)CCCC2`, in assay [2], the Ki was found to be 4.6 µM.

Molecule `CC(CC(=O)O)n1c2c(c3cc(NS(=O)(=O)c4ccc(F)cc4)ccc31)CCCC2` (configuration not stated) came in with a Ki in assay [2] greater than 50 µM.

Take `O=S(=O)(O)CCn1c2c(c3cc(NS(=O)(=O)c4ccc(F)cc4)ccc31)CCCC2`: in assay [2], the Ki is 2.4 µM.

On to `Nc1ccc2c(c1)c1c(n2CCC(=O)O)CCCC1`, for which the inhibition constant (Ki) in assay [2] is greater than 50 µM.

As for `O=C(O)CCn1c2c(c3cc(NS(=O)(=O)c4ccc5ccccc5c4)ccc31)CCCC2`, the Ki in assay [2] is 7.4 µM.

`O=C(O)CCn1c2c(c3cc(NS(=O)(=O)c4ccc(F)c(F)c4)ccc31)CCCC2` had a Ki in assay [2] of 4.2 µM.

In turn, `CCC(C(=O)O)n1c2c(c3cc(NS(=O)(=O)c4ccc(F)cc4)ccc31)CCCC2` (configuration not stated) had a Ki in assay [2] of 18 µM.

Consider `O=C(O)CCn1c2c(c3cc(NC(=O)c4ccccc4)ccc31)CCCC2`, for which the Ki in assay [2] is greater than 50 µM.

On to `O=C(O)Cn1c2c(c3cc(NS(=O)(=O)c4ccc(F)cc4)ccc31)CCCC2`, for which the Ki on Thromboxane A2 receptor [7] was greater than 20 µM; in assay [2], 0.03 µM.

`O=C(O)CCn1c2c(c3cc(NS(=O)(=O)c4ccccc4)ccc31)CCCC2`: in assay [2], the affinity corresponds to a Ki of 1.2 µM.

`CC1CCc2c(c3cc(NS(=O)(=O)c4ccc(F)cc4)ccc3n2CC(=O)O)C1` (configuration not stated): the IC50 in assay [1] was 9.7 nM. The molecule further came in with an inhibition in assay [5] of 30%. The Ki on Thromboxane A2 receptor [3] is greater than 20000 nM.

On to `O=C(O)CCn1c2c(c3cc(NS(=O)(=O)c4ccccc4F)ccc31)CCCC2`, for which, in assay [2], affinity was put at a Ki of 0.97 µM.

Consider `O=C(O)CCn1c2c(c3cc(NS(=O)(=O)c4cccs4)ccc31)CCCC2`, for which the affinity in assay [2] corresponds to a Ki of 7.6 µM.

Turning to `O=C(O)CN1c2ccc(NS(=O)(=O)c3ccc(F)cc3)cc2C2CCCCCC21` (configuration not stated), the IC50 in assay [1] worked out at 22 nM. In addition, on Thromboxane A2 receptor [3], the Ki was greater than 20000 nM.

Turning to `Cc1ccc(S(=O)(=O)Nc2ccc3c(c2)c2c(n3CCC(=O)O)CCCC2)cc1`, in assay [2], the Ki was determined as 3.2 µM.
